Measured values taken from article PMC5218480 (PLoS ONE, 2017).

Test system: MV-4-11 cells
Experiment: Gene expression microarray analysis (Affymetrix PrimeView) and GSEA
Type: cell-based, human
Design: RFU PODN (11730768_x_at) / Fold change /veh PODN (11730768_x_at) / RFU LINC00158 (11744669_a_at) / Fold change /veh LINC00158 (11744669_a_at) / RFU DUSP10 (11751237_a_at) / Fold change /veh DUSP10 (11751237_a_at) / RFU ID3 (11757404_x_at) / Fold change /veh ID3 (11757404_x_at) / RFU PLEKHG5 (11737974_s_at) / Fold change /veh PLEKHG5 (11737974_s_at) / RFU LRRC4B (11730491_at) / Fold change /veh LRRC4B (11730491_at) / RFU GIMAP4 (11747438_a_at) / Fold change /veh GIMAP4 (11747438_a_at) / RFU KRT8 (11758183_x_at) / Fold change /veh KRT8 (11758183_x_at) / RFU CNN1 (11734310_a_at) / Fold change /veh CNN1 (11734310_a_at) / RFU VPS37D (11726825_at) / Fold change /veh VPS37D (11726825_at) / RFU C10orf10 (11716522_x_at) / Fold change /veh C10orf10 (11716522_x_at) / RFU KIR2DL2 /// KIR2DL4 /// KIR2DL5A /// KIR2DL5B /// KIR2DS1 /// KIR2DS2 /// KIR2DS3 /// KIR2DS4 /// KIR3DL3 /// KIR3DL3 /// KIR3DS1 (11738374_at) / Fold change /veh KIR2DL2 /// KIR2DL4 /// KIR2DL5A /// KIR2DL5B /// KIR2DS1 /// KIR2DS2 /// KIR2DS3 /// KIR2DS4 /// KIR3DL3 /// KIR3DL3 /// KIR3DS1 (11738374_at) / RFU C1QL1 (11718748_at) / Fold change /veh C1QL1 (11718748_at) / RFU TMPRSS4 (11747572_a_at) / Fold change /veh TMPRSS4 (11747572_a_at) / RFU HAMP (11756126_x_at) / Fold change /veh HAMP (11756126_x_at) / RFU RNFT2 (11725882_a_at) / Fold change /veh RNFT2 (11725882_a_at) / RFU NR4A2 (11747474_a_at) / Fold change /veh NR4A2 (11747474_a_at) / RFU ABCC12 (11746883_a_at) / Fold change /veh ABCC12 (11746883_a_at) / RFU TMEM136 (11760407_x_at) / Fold change /veh TMEM136 (11760407_x_at) / RFU CLDN22 /// WWC2 (11732394_at) / Fold change /veh CLDN22 /// WWC2 (11732394_at) / RFU HLA-DPB1 (11760878_x_at) / Fold change /veh HLA-DPB1 (11760878_x_at) / RFU SPINT1 (11716480_a_at) / Fold change /veh SPINT1 (11716480_a_at) / RFU GAP43 (11754022_s_at) / Fold change /veh GAP43 (11754022_s_at) / RFU A4GNT (11735810_at) / Fold change /veh A4GNT (11735810_at) / RFU PRB3 (11715151_x_at) / Fold change /veh PRB3 (11715151_x_at) / RFU TUBB4B (11761932_at) / Fold change /veh TUBB4B (11761932_at) / RFU CAPN14 (11732068_a_at) / Fold change /veh CAPN14 (11732068_a_at) / RFU TMCC2 (11721928_a_at) / Fold change /veh TMCC2 (11721928_a_at) / RFU IRGQ (11745062_a_at) / Fold change /veh IRGQ (11745062_a_at) / RFU FAM174B (11720279_a_at) / Fold change /veh FAM174B (11720279_a_at) / RFU TMPRSS4 (11748680_a_at) / Fold change /veh TMPRSS4 (11748680_a_at) / RFU FAM212B (11763350_a_at) / Fold change /veh FAM212B (11763350_a_at) / RFU PLEKHG5 (11743358_a_at) / Fold change /veh PLEKHG5 (11743358_a_at) / RFU ZSCAN30 (11745921_a_at) / Fold change /veh ZSCAN30 (11745921_a_at) / RFU CMKLR1 (11741424_a_at) / Fold change /veh CMKLR1 (11741424_a_at) / RFU LOC101060620 /// MAPK8IP1 (11723275_at) / Fold change /veh LOC101060620 /// MAPK8IP1 (11723275_at) / RFU SPTSSB (11747773_x_at) / Fold change /veh SPTSSB (11747773_x_at) / RFU PRSS12 (11739890_at) / Fold change /veh PRSS12 (11739890_at) / RFU BIN1 (11741810_x_at) / Fold change /veh BIN1 (11741810_x_at) / RFU WNT11 (11732464_a_at) / Fold change /veh WNT11 (11732464_a_at) / RFU C10orf10 (11716521_a_at) / Fold change /veh C10orf10 (11716521_a_at) / RFU C5orf56 (11738089_at) / Fold change /veh C5orf56 (11738089_at) / RFU CYB561 (11721691_x_at) / Fold change /veh CYB561 (11721691_x_at) / RFU ANKRD19P (11752326_a_at) / Fold change /veh ANKRD19P (11752326_a_at) / RFU OR2T12 /// OR2T33 /// OR2T8 (11738714_s_at) / Fold change /veh OR2T12 /// OR2T33 /// OR2T8 (11738714_s_at) / RFU VCAN (11748164_a_at) / Fold change /veh VCAN (11748164_a_at) / RFU JSRP1 (11732532_at) / Fold change /veh JSRP1 (11732532_at) / RFU KRTAP10-11 (11738290_x_at) / Fold change /veh KRTAP10-11 (11738290_x_at) / RFU MYO3A (11730013_a_at) / Fold change /veh MYO3A (11730013_a_at) / RFU EBF3 (11725865_a_at) / Fold change /veh EBF3 (11725865_a_at) / RFU CAMK2N1 (11719241_x_at) / Fold change /veh CAMK2N1 (11719241_x_at) / RFU C5orf56 (11738088_a_at) / Fold change /veh C5orf56 (11738088_a_at) / RFU OLFML3 (11715873_a_at) / Fold change /veh OLFML3 (11715873_a_at) / RFU LOC100653217 /// NTM (11731650_a_at) / Fold change /veh LOC100653217 /// NTM (11731650_a_at) / RFU MAPK11 (11762145_a_at) / Fold change /veh MAPK11 (11762145_a_at) / RFU FIZ1 (11724087_x_at) / Fold change /veh FIZ1 (11724087_x_at) / RFU OASL (11726364_x_at) / Fold change /veh OASL (11726364_x_at) / RFU SOX15 (11748057_x_at) / Fold change /veh SOX15 (11748057_x_at) / RFU CD79A (11719716_a_at) / Fold change /veh CD79A (11719716_a_at) / RFU HIST1H1D (11736915_at) / Fold change /veh HIST1H1D (11736915_at) / RFU CASKIN2 (11723855_a_at) / Fold change /veh CASKIN2 (11723855_a_at) / RFU LOC730098 (11760151_x_at) / Fold change /veh LOC730098 (11760151_x_at) / RFU OR4N2 (11742367_at) / Fold change /veh OR4N2 (11742367_at) / RFU PRRT2 (11749266_a_at) / Fold change /veh PRRT2 (11749266_a_at) / RFU SNX32 (11753110_a_at) / Fold change /veh SNX32 (11753110_a_at) / RFU CDHR5 (11726645_a_at) / Fold change /veh CDHR5 (11726645_a_at) / RFU RCAN1 (11760418_a_at) / Fold change /veh RCAN1 (11760418_a_at) / RFU FAM167A (11723789_a_at) / Fold change /veh FAM167A (11723789_a_at) / RFU FAM26E (11764081_at) / Fold change /veh FAM26E (11764081_at) / RFU ISYNA1 (11749810_s_at) / Fold change /veh ISYNA1 (11749810_s_at) / RFU ACY1 (11761880_at) / Fold change /veh ACY1 (11761880_at) / RFU 11764098_at / Fold change /veh 11764098_at / RFU SAMD14 (11745864_x_at) / Fold change /veh SAMD14 (11745864_x_at) / RFU NPB (11741838_a_at) / Fold change /veh NPB (11741838_a_at) / RFU TMPRSS6 (11731388_a_at) / Fold change /veh TMPRSS6 (11731388_a_at) / RFU KRTAP10-2 (11738614_at) / Fold change /veh KRTAP10-2 (11738614_at) / RFU ARHGAP8 /// PRR5-ARHGAP8 (11727945_x_at) / Fold change /veh ARHGAP8 /// PRR5-ARHGAP8 (11727945_x_at) / RFU KRTAP5-7 /// NADSYN1 (11734609_at) / Fold change /veh KRTAP5-7 /// NADSYN1 (11734609_at) / RFU RASL12 (11751679_a_at) / Fold change /veh RASL12 (11751679_a_at) / RFU CDKN2B (11736163_a_at) / Fold change /veh CDKN2B (11736163_a_at) / RFU PRF1 (11729649_at) / Fold change /veh PRF1 (11729649_at) / RFU, ZNF638 /// ZNF638-IT1 / Fold change vs veh, ZNF638 /// ZNF638-IT1 / RFU, PANK3 / Fold change vs veh, PANK3 / RFU, SH3YL1 / Fold change vs veh, SH3YL1 / RFU, ZEB2 / Fold change vs veh, ZEB2 / RFU, NRIP1 / Fold change vs veh, NRIP1 / RFU, PTTG1IP / Fold change vs veh, PTTG1IP / RFU, CAPN2 / Fold change vs veh, CAPN2 / RFU, MED14 / Fold change vs veh, MED14 / RFU, SNORA58 / Fold change vs veh, SNORA58 / RFU, C1orf63 / Fold change vs veh, C1orf63 / RFU, LRRFIP1 / Fold change vs veh, LRRFIP1 / RFU, NDUFAF7 / Fold change vs veh, NDUFAF7 / RFU, SLC12A2 / Fold change vs veh, SLC12A2 / RFU, IBTK / Fold change vs veh, IBTK / RFU, ESF1 / Fold change vs veh, ESF1 / Fold change vs veh, TMEM50B / RFU, TAOK1 / Fold change vs veh, TAOK1 / RFU, ACBD3 / Fold change vs veh, ACBD3 / RFU, TMA16 / Fold change vs veh, TMA16 / RFU, RWDD3 / Fold change vs veh, RWDD3 / RFU, BCAT1 / Fold change vs veh, BCAT1 / RFU, EDEM3 / Fold change vs veh, EDEM3 / RFU, TMEM33 / Fold change vs veh, TMEM33 / RFU, WDR75 / Fold change vs veh, WDR75 / RFU, AHCTF1 / Fold change vs veh, AHCTF1 / RFU, TFRC / Fold change vs veh, TFRC / RFU, ZDHHC17 / Fold change vs veh, ZDHHC17 / RFU, NOM1 / Fold change vs veh, NOM1 / RFU, ARL8B / Fold change vs veh, ARL8B / RFU, ZBTB11 / Fold change vs veh, ZBTB11 / RFU, TAMM41 / Fold change vs veh, TAMM41 / RFU, KIAA1704 /// LOC100996395 / Fold change vs veh, KIAA1704 /// LOC100996395 / RFU, ING1 / Fold change vs veh, ING1 / RFU, TRMT61B / Fold change vs veh, TRMT61B / RFU, FUBP3 / Fold change vs veh, FUBP3 / RFU, TP53 / Fold change vs veh, TP53 / RFU, TNKS2 / Fold change vs veh, TNKS2 / RFU, ZFP14 / Fold change vs veh, ZFP14 / RFU, ACTR2 / Fold change vs veh, ACTR2 / RFU, PPP3R1 / Fold change vs veh, PPP3R1 / RFU, PIK3R1 / Fold change vs veh, PIK3R1 / RFU, HNRNPA1 / Fold change vs veh, HNRNPA1 / RFU, RNF170 / Fold change vs veh, RNF170 / RFU, ZNF28 / Fold change vs veh, ZNF28 / RFU, RNGTT / Fold change vs veh, RNGTT / RFU, OGT / Fold change vs veh, OGT / RFU, BRD1 / Fold change vs veh, BRD1 / RFU, MARS / Fold change vs veh, MARS / RFU, ZNF655 / Fold change vs veh, ZNF655 / RFU, FAHD1 / Fold change vs veh, FAHD1 / RFU, BDP1 / Fold change vs veh, BDP1 / RFU, LRRCC1 / Fold change vs veh, LRRCC1 / RFU, ARID1A / Fold change vs veh, ARID1A / RFU, ZNF146 / Fold change vs veh, ZNF146 / RFU, ZNF330 / Fold change vs veh, ZNF330 / RFU, GPN3 / Fold change vs veh, GPN3 / RFU, C9orf123 / Fold change vs veh, C9orf123 / RFU, N4BP2L2 / Fold change vs veh, N4BP2L2 / RFU, ARFIP1 / Fold change vs veh, ARFIP1 / RFU, FAM179B / Fold change vs veh, FAM179B / RFU, BCL10 / Fold change vs veh, BCL10 / RFU, UHRF1BP1L / Fold change vs veh, UHRF1BP1L / RFU, BET1 / Fold change vs veh, BET1 / RFU, CNOT2 / Fold change vs veh, CNOT2 / RFU, ZNF268 / Fold change vs veh, ZNF268 / Fold change vs veh, ZNF507 / RFU, DGCR2 / Fold change vs veh, DGCR2 / RFU, WDSUB1 / Fold change vs veh, WDSUB1 / Fold change vs veh, HSP90B1 /// MIR3652 / RFU, ADSS / Fold change vs veh, ADSS / RFU, GK / Fold change vs veh, GK / RFU, ZNF148 / Fold change vs veh, ZNF148 / RFU, TAF9 / Fold change vs veh, TAF9 / RFU, SLC1A5 / Fold change vs veh, SLC1A5 / RFU, SLMO2 / Fold change vs veh, SLMO2 / RFU, ABCC4 / Fold change vs veh, ABCC4 / RFU, LOC101060439 /// RAP1B / Fold change vs veh, LOC101060439 /// RAP1B / RFU, RFX7 / Fold change vs veh, RFX7 / RFU, GTPBP10 / Fold change vs veh, GTPBP10 / RFU, CNEP1R1 / Fold change vs veh, CNEP1R1 / RFU, BIVM-ERCC5 /// ERCC5 / Fold change vs veh, BIVM-ERCC5 /// ERCC5 / RFU, ILF3 / Fold change vs veh, ILF3 / RFU 11762660_at / Fold change /veh 11762660_at / RFU VCAN (11757783_s_at) / Fold change /veh VCAN (11757783_s_at) / RFU DDX43 (11728927_at) / Fold change /veh DDX43 (11728927_at) / RFU KRT8 (11758188_x_at) / Fold change /veh KRT8 (11758188_x_at) / RFU NKD1 (11759106_at) / Fold change /veh NKD1 (11759106_at) / RFU SRD5A1 (11742802_a_at) / Fold change /veh SRD5A1 (11742802_a_at) / RFU TPSAB1 /// TPSB2 (11721975_s_at) / Fold change /veh TPSAB1 /// TPSB2 (11721975_s_at) / RFU GSTM3 (11746129_a_at) / Fold change /veh GSTM3 (11746129_a_at) / RFU IL23R (11737362_x_at) / Fold change /veh IL23R (11737362_x_at) / RFU TMEM51 (11727254_a_at) / Fold change /veh TMEM51 (11727254_a_at) / RFU PIWIL2 (11732686_x_at) / Fold change /veh PIWIL2 (11732686_x_at) / RFU ORM1 (11744905_x_at) / Fold change /veh ORM1 (11744905_x_at) / RFU CCDC152 (11743942_at) / Fold change /veh CCDC152 (11743942_at) / RFU ECM1 (11717891_a_at) / Fold change /veh ECM1 (11717891_a_at) / RFU IL23R (11748794_a_at) / Fold change /veh IL23R (11748794_a_at) / RFU TNFAIP8L3 (11732012_x_at) / Fold change /veh TNFAIP8L3 (11732012_x_at) / RFU MBOAT4 (11741988_at) / Fold change /veh MBOAT4 (11741988_at) / RFU 11764193_at / Fold change /veh 11764193_at / RFU TMEM53 (11763286_at) / Fold change /veh TMEM53 (11763286_at) / RFU MAGEB2 (11727129_at) / Fold change /veh MAGEB2 (11727129_at) / RFU TMEM200A (11744735_a_at) / Fold change /veh TMEM200A (11744735_a_at) / RFU CCDC152 (11751479_a_at) / Fold change /veh CCDC152 (11751479_a_at) / RFU FAM211A (11726209_a_at) / Fold change /veh FAM211A (11726209_a_at) / RFU RGS16 (11746705_a_at) / Fold change /veh RGS16 (11746705_a_at) / RFU VCAN (11755009_s_at) / Fold change /veh VCAN (11755009_s_at) / RFU RHOB (11743442_s_at) / Fold change /veh RHOB (11743442_s_at) / RFU RGS16 (11720943_a_at) / Fold change /veh RGS16 (11720943_a_at) / RFU RGS16 (11720944_at) / Fold change /veh RGS16 (11720944_at) / RFU, VPS4B / Fold change vs veh, VPS4B / RFU, CREB1 / Fold change vs veh, CREB1 / RFU, DNAJC13 / Fold change vs veh, DNAJC13 / RFU, GNAQ / Fold change vs veh, GNAQ / RFU, CDK5R1 / Fold change vs veh, CDK5R1 / RFU, ZRANB3 / Fold change vs veh, ZRANB3 / RFU, CUL4A / Fold change vs veh, CUL4A / RFU, CCNY / Fold change vs veh, CCNY / RFU, UFL1 / Fold change vs veh, UFL1 / RFU, COG3 / Fold change vs veh, COG3 / RFU, DIAPH2 / Fold change vs veh, DIAPH2 / RFU, SKA2 / Fold change vs veh, SKA2 / RFU, AFF3 / Fold change vs veh, AFF3 / RFU, LMF1 / Fold change vs veh, LMF1 / RFU, IPO11 / Fold change vs veh, IPO11 / RFU, DFFB / Fold change vs veh, DFFB / RFU, FOXP1 / Fold change vs veh, FOXP1 / RFU, CARD8 / Fold change vs veh, CARD8 / RFU, STRN3 / Fold change vs veh, STRN3 / RFU, ADK / Fold change vs veh, ADK / RFU, RASSF2 / Fold change vs veh, RASSF2 / RFU, WIPF1 / Fold change vs veh, WIPF1 / RFU, LARP1B / Fold change vs veh, LARP1B / RFU, RASA1 / Fold change vs veh, RASA1 / RFU, RB1 / Fold change vs veh, RB1 / RFU, PPFIA1 / Fold change vs veh, PPFIA1 / RFU, MAT2A / Fold change vs veh, MAT2A / RFU, CCT5 / Fold change vs veh, CCT5 / RFU, WDR92 / Fold change vs veh, WDR92 / RFU, CUX1 / Fold change vs veh, CUX1 / RFU, TTC7A / Fold change vs veh, TTC7A / RFU, TMEM135 / Fold change vs veh, TMEM135 / RFU, DEPTOR / Fold change vs veh, DEPTOR / RFU, CPM / Fold change vs veh, CPM / RFU, DNAJB6 / Fold change vs veh, DNAJB6 / RFU, CACNA2D3 / Fold change vs veh, CACNA2D3 / RFU, DTX4 / Fold change vs veh, DTX4 / RFU, TFCP2 / Fold change vs veh, TFCP2 / RFU, GMCL1 /// GMCL1P1 / Fold change vs veh, GMCL1 /// GMCL1P1 / RFU, AEBP2 / Fold change vs veh, AEBP2 / RFU, SNHG1 /// SNORD22 /// SNORD25 /// SNORD26 /// SNORD27 /// SNORD28 /// SNORD29 /// SNORD31 / Fold change vs veh, SNHG1 /// SNORD22 /// SNORD25 /// SNORD26 /// SNORD27 /// SNORD28 /// SNORD29 /// SNORD31 / Fold change (Aza/veh), C12orf56 (ProbeSet 11735607_a_at) / Fold change (ACY-1035/veh), C12orf56 (ProbeSet 11735607_a_at) / Fold change (Aza/veh), FGFR1OP (ProbeSet 11751329_s_at) / Fold change (ACY-1035/veh), FGFR1OP (ProbeSet 11751329_s_at) / Fold change (Aza/veh), VPS36 (ProbeSet 11739960_a_at) / Fold change (ACY-1035/veh), VPS36 (ProbeSet 11739960_a_at) / RFU SYPL1 (11715823_x_at) / Fold change /veh SYPL1 (11715823_x_at) / RFU IGFBP7 (11715501_s_at) / Fold change /veh IGFBP7 (11715501_s_at) / RFU REEP3 (11722064_at) / Fold change /veh REEP3 (11722064_at) / RFU IGLL1 (11728026_x_at) / Fold change /veh IGLL1 (11728026_x_at): dose or concentration left out as unconfirmed
Conditions: ProbeSet 11718977_a_at; LIST B

Nc1ncn([C@@H]2O[C@H](CO)[C@@H](O)[C@H]2O)c(=O)n1 [azacitidine]
Fold change vs veh, CAPN2: 0.92
